Two compounds from patent US20110257161A1 (priority 2008, published 2011) can be followed below.

Each structure is given as a SMILES string. Structures can show the parent of a compound that is named as a salt.

The test concerns the target α7-subtype of nicotinic receptors (Rattus norvegicus, UniProt Q05941). Kind of test: biochemical. The format is binding.

α7-subtype of nicotinic receptors, sequence (Q05941 23-502): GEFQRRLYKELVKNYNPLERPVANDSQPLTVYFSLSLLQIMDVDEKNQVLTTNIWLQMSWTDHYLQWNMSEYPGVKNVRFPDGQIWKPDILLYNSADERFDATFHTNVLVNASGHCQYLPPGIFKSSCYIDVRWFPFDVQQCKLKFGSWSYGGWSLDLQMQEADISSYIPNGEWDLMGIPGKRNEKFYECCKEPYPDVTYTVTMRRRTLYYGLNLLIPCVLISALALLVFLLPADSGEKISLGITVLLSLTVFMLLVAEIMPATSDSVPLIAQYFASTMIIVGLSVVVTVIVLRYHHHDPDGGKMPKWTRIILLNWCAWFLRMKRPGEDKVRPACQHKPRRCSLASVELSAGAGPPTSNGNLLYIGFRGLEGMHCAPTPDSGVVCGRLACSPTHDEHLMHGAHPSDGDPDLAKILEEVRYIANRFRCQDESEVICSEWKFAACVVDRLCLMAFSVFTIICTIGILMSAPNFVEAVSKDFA

One may read the IC50 as the concentration needed to halve the response being measured. For the compound `O=c1c2ccccc2nnn1-c1ccc(N2CCN3CCC2CC3)cc1` [Compound D1, 3-[4-(1,4-Diaza-bicyclo[3.2.2]non-4-yl)-phenyl]-3H-benzo[d][1,2,3]triazin-4-one fumaric acid salt], the 50% inhibitory concentration (IC50) was 0.022 µM.
Turning to `O=c1c2ccccc2ncn1-c1ccc(N2CCN3CCC2CC3)cc1` [Compound E1, 3-[4-(1,4-Diaza-bicyclo[3.2.2]non-4-yl)-phenyl]-3H-quinazolin-4-one fumaric acid salt], the IC50 came out at 0.13 µM.
